Biological target: T1, rat mGluR5 receptor (Rattus norvegicus, UniProt P31424)
T1 construct: expressed in transfected cells; host or cells: HEK-293
Test: [3H]-MPEP displacement binding assay, HEK-293 cell membranes expressing rat mGluR5
Conditions: for inhibition at 10 µM: 1 h, single point, @ 10 μm compound, Table 1A, read-out: PCT INHIB (%) @ 10 μm; for Ki: read-out: Median Ki
Procedure: MGluR5 expressing HEK-293 cells were scraped off a plate, transferred to centrifuge tubes and washed twice by centrifugation (2000 rpm for 10 minutes, at 4° C.) in buffer (50 mM Tris pH 7.5). The resulting pellets were aliquoted and stored at minus 80° C. On the day of assay, the cells were thawed on ice and re-suspended in buffer. The binding assay was performed in a 96 well microtiter plate in a total volume of […]. Non-specific binding was determined in the presence of 10 μM MPEP. The binding reaction included a final radioligand [^3H]-MPEP concentration of 4 nM and 12-25 μg membrane protein per well. Following a 60 minute incubation at room temperature, the reaction was terminated by the addition of ice cold buffer and rapid filtration through a GF/B filter that had been presoaked for 30 minutes in 0.5% PEI. Compounds were initially tested in a single point assay to determine percent inhibition at 10 μM.
Percent inhibition and Ki values were generated by GraphPad Prism and Excel Fit. IC50 values were calculated using GraphPad by fitting to a 1 or 2 site-binding model.
where [L] is the concentration of free radioligand and Kd is the dissociation constant of radioligand for the receptor.

T1 sequence (P31424 21-1203): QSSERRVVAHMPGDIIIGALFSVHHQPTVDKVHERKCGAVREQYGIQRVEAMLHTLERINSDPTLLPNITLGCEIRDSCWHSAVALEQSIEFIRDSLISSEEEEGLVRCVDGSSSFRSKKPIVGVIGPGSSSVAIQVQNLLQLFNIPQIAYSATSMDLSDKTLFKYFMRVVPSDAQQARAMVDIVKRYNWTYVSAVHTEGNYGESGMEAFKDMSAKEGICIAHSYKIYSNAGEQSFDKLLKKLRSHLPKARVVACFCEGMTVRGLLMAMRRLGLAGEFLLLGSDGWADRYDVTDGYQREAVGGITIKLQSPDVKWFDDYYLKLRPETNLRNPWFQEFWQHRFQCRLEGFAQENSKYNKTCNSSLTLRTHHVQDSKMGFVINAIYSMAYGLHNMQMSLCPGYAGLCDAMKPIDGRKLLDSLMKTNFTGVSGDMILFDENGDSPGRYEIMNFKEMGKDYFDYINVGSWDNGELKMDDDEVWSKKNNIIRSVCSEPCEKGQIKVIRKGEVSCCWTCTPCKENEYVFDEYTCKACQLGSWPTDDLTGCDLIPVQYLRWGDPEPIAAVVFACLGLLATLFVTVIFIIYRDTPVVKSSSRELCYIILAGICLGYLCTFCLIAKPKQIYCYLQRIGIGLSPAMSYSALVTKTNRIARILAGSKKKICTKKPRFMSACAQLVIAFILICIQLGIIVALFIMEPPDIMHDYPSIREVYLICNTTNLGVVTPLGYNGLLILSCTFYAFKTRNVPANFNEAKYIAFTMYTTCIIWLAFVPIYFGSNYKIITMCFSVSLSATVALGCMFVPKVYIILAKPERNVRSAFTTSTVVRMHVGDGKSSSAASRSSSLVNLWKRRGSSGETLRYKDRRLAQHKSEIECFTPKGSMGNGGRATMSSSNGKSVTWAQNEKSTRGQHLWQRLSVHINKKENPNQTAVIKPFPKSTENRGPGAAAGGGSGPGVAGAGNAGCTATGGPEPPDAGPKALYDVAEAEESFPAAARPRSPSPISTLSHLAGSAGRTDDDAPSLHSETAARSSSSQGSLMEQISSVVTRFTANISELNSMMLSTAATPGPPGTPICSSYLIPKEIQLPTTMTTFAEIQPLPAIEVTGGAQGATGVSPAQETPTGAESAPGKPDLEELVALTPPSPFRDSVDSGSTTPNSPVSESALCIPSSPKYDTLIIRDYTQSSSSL

Compound	inhibition at 10 µM [%]	Ki [nM]
Cc1ccc(C(=O)N2CCN(c3ccccn3)CC2)cc1C#Cc1cc(F)cc(F)c1 [Compound 29, 1-{3-[(3,5-difluorophenyl)ethynyl]-4-methylbenzoyl}-4-pyridin-2-ylpiperazine]	41	
Cc1ccc(C)c(C#Cc2cc(C(=O)N3CCN(c4ccccn4)CC3)ccc2C)c1 [Compound 30, 1-{3-[(2,5-dimethylphenyl)ethynyl]-4-methylbenzoyl}-4-pyridin-2-ylpiperazine]	55	3810
Cc1cc(C#Cc2cc(C(=O)N3CCN(c4ccccn4)CC3)ccc2C)ccc1F [Compound 31, 1-{3-[(4-fluoro-3-methylphenyl)ethynyl]-4-methylbenzoyl}-4-pyridin-2-ylpiperazine]	68	472
Cc1ccc(C(=O)N2CCN(c3ccccn3)CC2)cc1C#Cc1cccnc1 [Compound 32, 1-[4-methyl-3-(pyridin-3-ylethynyl)benzoyl]-4-pyridin-2-ylpiperazine]	68	3110
COc1ccc(C(=O)N2CCN(c3ccccn3)CC2)cc1C#Cc1cccc(O)c1 [Compound 33, 3-({2-methoxy-5-[(4-pyridin-2-ylpiperazin-1-yl)carbonyl]phenyl}ethynyl)phenol]	82	541
COc1ccc(C(=O)N2CCN(c3ccccn3)CC2)cc1C#Cc1cccc(N)c1 [Compound 34, 3-({2-methoxy-5-[(4-pyridin-2-ylpiperazin-1-yl)carbonyl]phenyl}ethynyl)aniline]	62	299
COc1ccc(C(=O)N2CCN(c3ccccn3)CC2)cc1C#Cc1cccnc1 [Compound 35, 1-[4-methoxy-3-(pyridin-3-ylethynyl)benzoyl]-4-pyridin-2-ylpiperazine]	67	898
Cc1ccc(C(=O)N2CCN(c3ccccn3)CC2)cc1C#Cc1cccc(N)c1 [Compound 36, 3-({2-methyl-5-[(4-pyridin-2-ylpiperazin-1-yl)carbonyl]phenyl}ethynyl)aniline]	79	474
COc1ccc(C(=O)N2CCN(c3ccccn3)CC2)cc1C#Cc1ccc(F)c(C)c1 [Compound 37, 1-{3-[(4-fluoro-3-methylphenyl)ethynyl]-4-methoxybenzoyl}-4-pyridin-2-ylpiperazine]	74	54.7
Cc1cccc(C#Cc2cc(C(=O)N3CCN(c4ccccn4)CC3)ccc2C)c1 [Compound 39, 1-{4-methyl-3-[(3-methylphenyl)ethynyl]benzoyl}-4-pyridin-2-ylpiperazine]	83	57.1
COc1cc(C#Cc2cc(C(=O)N3CCN(c4ccccn4)CC3)ccc2C)cc(OC)c1 [Compound 40, 1-{3-[(3,5-dimethoxyphenyl)ethynyl]-4-methylbenzoyl}-4-pyridin-2-ylpiperazine]	0	
Cc1cc(C)c(C#Cc2cc(C(=O)N3CCN(c4ccccn4)CC3)ccc2C)cc1C [Compound 41, 1-{4-methyl-3-[(2,4,5-trimethylphenyl)ethynyl]benzoyl}-4-pyridin-2-ylpiperazine]	0	
Cc1ccc(C(=O)N2CCN(c3ccccn3)CC2)cc1C#Cc1ccccn1 [Compound 42, 1-[4-methyl-3-(pyridin-2-ylethynyl)benzoyl]-4-pyridin-2-ylpiperazine]	96	5.9
COc1ccc(C(=O)N2CCN(c3ccccn3)CC2)cc1C#Cc1cccc(C(F)(F)F)c1 [Compound 43, 1-(4-methoxy-3-{[3-(trifluoromethyl)phenyl]ethynyl}benzoyl)-4-pyridin-2-ylpiperazine]	82	278
COc1ccc(C(=O)N2CCN(c3ccccn3)CC2)cc1C#Cc1cc(C(F)(F)F)cc(C(F)(F)F)c1 [Compound 44, 1-(3-{[3,5-bis(trifluoromethyl)phenyl]ethynyl}-4-methoxybenzoyl)-4-pyridin-2-ylpiperazine]	0	
